Values after ≈ are worked out from the molar mass of the structure shown. Where two headings read alike, the source gives them in different places.
Legend:
HSV-1 (KOSSB) HSV-TK− = test: microbe, parasite or virus in culture; type: cell-based, Herpes simplex virus type-1; settings: for HSV-1 (KOSSB) HSV-TK− EC50: Table 4
Description: (§1) The cells were then incubated for 24 h at 37° C. in a CO2 incubator. After incubation, the medium was removed and 100 μL of MEM containing 2% FBS was added to all but the first row. In the first row, 125 μL of experimental drug was added in triplicate wells. Medium alone was added to both cell and virus control […]. After incubation, the medium was removed and 100 μl of MEM containing 2% FBS was added to all but the first row. Medium alone was added to both cell and virus control wells. 125 μl of Experimental drug was added in triplicate wells. The drug in the first row of wells was then diluted serially 1:5 throughout the remaining wells by transferring 25 μL using the Cetus Liquid Handling Machine. After dilution of drugs, 100 μL of the appropriate virus concentration was added to each well, excluding the cell control wells which received 100 μL of MEM. For HSY-1 and HSV-2 assays, the virus concentration utilized was 1000 PFU's per well. For CMV and VZV assays, the virus concentration added was 2500 PFU's per well. The plates were then incubated at 37° C. in a CO2 incubator for 3 days for HSV-1 and HSV-2, 10 days for VZV, or 14 days for CMV. After the incubation period, media was aspirated and the cells stained with a 0.1% crystal violet solution for 30 min. The stain was then removed and the plates were allowed to dry 24 h and then read on a Skatron Plate Reader at 620 nm.

VZV (Ellen) = test: CPE inhibition assay VZV (Ellen) in HFF cells; type: cell-based, varicella zoster virus; settings: for EC50: Human alphaherpesvirus 3, HFF
Description: as §1, with “Cytopathic effect (CPE) inhibition assays for HSV-1, HSV-2, HCMV and VZV were performed as follows: Low passage human foreskin fibroblasts (HFF) cells were seeded into 96 well tissue culture plates 24 h prior to use at a cell concentration of 2.5×10^4 cells per mL in 0.1 mL of minimal essential medium (MEM) supplemented with 10% fetal bovine serum (FBS). The cells” for “The cells”

HSV-2 (MS) = test: CPE inhibition assay HSV-2 (MS) in HFF cells; type: cell-based, Herpes simplex virus type-2; settings: for EC50: Human alphaherpesvirus 2, HFF
Description: as §1, with “Cytopathic effect (CPE) inhibition assays for HSV-1, HSV-2, HCMV and VZV were performed as follows: Low passage human foreskin fibroblasts (HFF) cells were seeded into 96 well tissue culture plates 24 h prior to use at a cell concentration of 2.5×10^4 cells per mL in 0.1 mL of minimal essential medium (MEM) supplemented with 10% fetal bovine serum (FBS). The cells” for “The cells”

HSV-1 (KOS) HSV-TK+ = HSV-1 (KOS) HSV-TK+ antiviral assay; type: cell-based, Herpes simplex virus type-1; settings: Table 4
Description: as §1, with “Cytopathic effect (CPE) inhibition assays for HSV-1, HSV-2, HCMV and VZV were performed as follows: Low passage human foreskin fibroblasts (HFF) cells were seeded into 96 well tissue culture plates 24 h prior to use at a cell concentration of 2.5×10^4 cells per mL in 0.1 mL of minimal essential medium (MEM) supplemented with 10% fetal bovine serum (FBS). The cells” for “The cells”

HCMV (AD169) = test: CPE inhibition assay HCMV (AD169) in HFF cells; type: cell-based, human cytomegalovirus; settings: for EC50: Human betaherpesvirus 5, AD169, HFF
Description: as §1, with “Cytopathic effect (CPE) inhibition assays for HSV-1, HSV-2, HCMV and VZV were performed as follows: Low passage human foreskin fibroblasts (HFF) cells were seeded into 96 well tissue culture plates 24 h prior to use at a cell concentration of 2.5×10^4 cells per mL in 0.1 mL of minimal essential medium (MEM) supplemented with 10% fetal bovine serum (FBS). The cells” for “The cells”

HSV-1 (E-377) = test: CPE inhibition assay HSV-1 (E-377) in HFF cells; type: cell-based, Herpes simplex virus type-1; settings: for EC50: Human alphaherpesvirus 1, HFF
Description: as §1, with “Cytopathic effect (CPE) inhibition assays for HSV-1, HSV-2, HCMV and VZV were performed as follows: Low passage human foreskin fibroblasts (HFF) cells were seeded into 96 well tissue culture plates 24 h prior to use at a cell concentration of 2.5×10^4 cells per mL in 0.1 mL of minimal essential medium (MEM) supplemented with 10% fetal bovine serum (FBS). The cells” for “The cells”

Epstein-Barr Virus (EBV) = test: EBV immunofluorescence assay in DAUDI cells (P3HR-1 strain); type: cell-based; settings: for EBV EC50: Table 4; for EC90: human gammaherpesvirus 4
Description: The immunofluorescence assay, using monoclonal antibodies, for Epstein-Barr Virus (EBV) was performed as follows: DAUDI cells were infected with the P3HR-1 strain of EBV and the test drug was added after adsorption (45 min. at 37° C.) and washing of the cell cultures. These cultures were then incubated for 2 days in complete medium to allow viral gene expression. Following the 48 h incubation period, the number of cells in each sample were counted and smears were made. Monoclonal antibodies to the different early antigen (EA) components and VCA were than added to the cells, incubated and washed. This was followed by the addition of a fluorescein conjugated rabbit anti mouse Ig antibodies. The number of fluorescence positive cells in the smears were counted and the total number of cells in the cultures positive for EA or VCA were then calculated and compared.

[1] = Cell cytotoxicity in Vero cells; type: cell-based; settings: African green monkey, Vero cells
Description: (§2) The compounds were assayed for a) their ability to inhibit DHBV DNA replication in duck hepatocytes, b) their ability to inhibit HBV DNA replication in HepG2 2.2.15 cells, c) the cell cytotoxicity in Vero cells, the cell viability in HFF cells, d) the cell proliferation in HFF cells, and e) the T cell proliferation (purified T cells, PHA stimulated). 3-TC was used as a control.

human HBV = test: HBV DNA replication in HepG2 2.2.15 cells; type: cell-based, hepatitis B virus; settings: for EC50: Table 3a, read-out: % Inhibition of human HBV DNA replication in HepG2 2.2.15 cells EC50
Description: as §2, with “control. Additional compounds described below in the Preparative Examples section were also tested, and the results are shown in Tables 2-4 below. The reference numbers for the compounds are found in the Preparative Examples.” for “control.”

[2] = system: duck hepatitis B virus (DHBV); test: DHBV DNA replication in primary duck hepatocytes (dot blot hybridization); type: cell-based; settings: for inhibition at 10 µg/mL: read-out: % Inh. of DHBV DNA in duck hepatocytes @ 10 μg/ml
Description: A series of compounds were synthesized and assayed for activity against duck hepatitis B virus (DHBV). […] Test compounds were added to the hepatocyte cultures on day 2 and maintained in culture with media changed every second day until day 12. Cell were harvested at day 14 and lysed with buffer containing 1% SDS. DNA was isolated from the lysate and dot blot hybridization was performed using a DHBV (32P) DNA probe. […]
as §2

[3] = Duck hepatitis B virus, Hepatocyte
[4] = Duck hepatitis B virus, Hepatocyte, Table 2, value in brackets, read-out: DHBV DNA in duck hepatocytes [EC50, μg/ml]

## (5S,6R) 5-fluoro-O^6-5′-cyclo-5,6-dihydro-2′-deoxythymidine [Compound R-23]
HSV-1 (KOSSB) HSV-TK−
  HSV-1 (KOSSB) HSV-TK− EC50: >50 µg/mL
VZV (Ellen); Table 4
  VZV (Ellen) EC50: >100 µg/mL
HSV-2 (MS); Table 4
  HSV-2 (MS) EC50: >100 µg/mL
HSV-1 (KOS) HSV-TK+
  HSV-1 (KOS) HSV-TK+ EC50: >25 µg/mL
HCMV (AD169); Table 4
  HCMV (AD-169) EC50: >100 µg/mL
HSV-1 (E-377); Table 4
  HSV-1 (E-377) EC50, μg/ml: >100 μg/ml
Epstein-Barr Virus (EBV)
  EBV EC50: 0.1 to 1.4 µg/mL
Epstein-Barr Virus (EBV); Table 4, in parentheses
  EBV EC90: (EC90 = 7.3) μg/ml

## O=c1[nH]c(=O)n(CCC(CO)CO)cc1I [Compound 19, 1-[4-Hydroxy-3-(hydroxymethyl)-1-butyl]-5-iodouracil]
[1]; Table 2
  CC50: > 200 µg/mL
Human HBV; Hepatitis B virus, HepG2 2.2.15, read-out: % Inh. of human HBV DNA replication in HepG2 2.2.15 cells @ 0.01 μg/ml (right)
  inhibition at 0.01 µg/mL: 18.1%
Human HBV; Hepatitis B virus, HepG2 2.2.15, read-out: % Inh. of human HBV DNA replication in HepG2 2.2.15 cells @ 0.1 μg/ml (left)
  inhibition at 0.1 µg/mL: 69.1%
[2]; [3]
  inhibition at 10 µg/mL: 65.2%

## C=Cc1cn(CCC(CO)CO)c(=O)[nH]c1=O [Compound 20, 1-[4-Hydroxy-3-(hydroxymethyl)-1-butyl]-5-vinyluracil]
[1]; Table 2
  CC50: > 100 µg/mL
[2]; [3]
  inhibition at 10 µg/mL: 80%
[2]; [4]
  EC50: 1 to 3 µg/mL

## (5R,6R) 5-fluoro-O^6-5′-cyclo-5,6-dihydro-2′-deoxythymidine [Compound R-25]
HSV-1 (KOSSB) HSV-TK−
  HSV-1 (KOSSB) HSV-TK− EC50: >50 µg/mL
VZV (Ellen); Table 4
  VZV (Ellen) EC50: >100 µg/mL
HSV-2 (MS); Table 4
  HSV-2 (MS) EC50: >100 µg/mL
HSV-1 (KOS) HSV-TK+
  HSV-1 (KOS) HSV-TK+ EC50: >25 µg/mL
HCMV (AD169); Table 4
  HCMV (AD-169) EC50: >100 µg/mL
HSV-1 (E-377); Table 4
  HSV-1 (E-377) EC50, μg/ml: >100 μg/ml
Epstein-Barr Virus (EBV)
  EBV EC50: 0.6 to 3.0 µg/mL

## Nc1nc(O)c2ncn(COC(CO)CO)c2n1 [Gancyclovir, ganciclovir, reference compound]
VZV (Ellen); Table 4
  EC50: 0.1 µg/mL
HCMV (AD169); Table 2
  EC50: 0.06 µg/mL (≈ 0.235 µM)
HCMV (AD169); Table 4, read-out: HCMV (AD-169) EC50
  EC50: 0.1 µg/mL (≈ 0.392 µM)

## [N-]=[N+]=NC1C(Cl)C(=O)NC(=O)N1[C@H]1C[C@H](O)[C@@H](CO)O1 (stereo partly shown) [RB-10, 5-Chloro-6-azido-5,6-dihydro-2′-deoxyuridine]
VZV (Ellen); Table 3b
  EC50: 9.8 µM
HSV-2 (MS); Table 3b
  EC50: 1.6 µM
[1]; Table 3b
  CC50: > 327 µM
HSV-1 (E-377); Table 3b
  EC50: 0.33 µM

## (5R,6S) 5-fluoro-O^6-5′-cyclo-5,6-dihydro-2′-deoxythymidine [Compound R-24]
HSV-1 (KOSSB) HSV-TK−
  HSV-1 (KOSSB) HSV-TK− EC50: >50 µg/mL
VZV (Ellen); Table 4
  VZV (Ellen) EC50: >100 µg/mL
HSV-2 (MS); Table 4
  HSV-2 (MS) EC50: >100 µg/mL
HSV-1 (KOS) HSV-TK+
  HSV-1 (KOS) HSV-TK+ EC50: >25 µg/mL
HCMV (AD169); Table 4
  HCMV (AD-169) EC50: >100 µg/mL
HSV-1 (E-377); Table 4
  HSV-1 (E-377) EC50, μg/ml: >100 μg/ml
Epstein-Barr Virus (EBV)
  EBV EC50: 0.6 to 2.8 µg/mL
Epstein-Barr Virus (EBV); Table 4, in parentheses
  EBV EC90: (EC90 = 3.8) μg/ml

## Nc1nc2c(ncn2COCCO)c(=O)[nH]1 [Acyclovir, acyclovir, reference compound]
HSV-1 (KOSSB) HSV-TK−; Human alphaherpesvirus 1, read-out: HSV-1 (KOSSB) HSV-TK− EC50, μg/ml
  EC50: > 100 µg/mL
VZV (Ellen); Table 2
  EC50: 0.6 µg/mL
VZV (Ellen); Table 3a
  EC50: 0.03 µg/mL
VZV (Ellen); Table 3b
  EC50: 3.96 µM
VZV (Ellen); Table 4
  EC50: 0.08 µg/mL
HSV-2 (MS); Table 3b
  EC50: 6.16 µM
HSV-2 (MS); Table 4
  EC50: 0.6 µg/mL
[1]; Table 3b
  CC50: > 400 µM
HSV-1 (KOS) HSV-TK+; Human alphaherpesvirus 1
  EC50: < 1 µg/mL
HSV-1 (E-377); Table 3b
  EC50: 3.08 µM
HSV-1 (E-377); Table 4
  EC50: 0.2 µg/mL
Epstein-Barr Virus (EBV); Table 4, in parentheses
  EBV EC90: > 50 µg/mL
Epstein-Barr Virus (EBV); Table 5, in parentheses
  EBV EC90: (EC90 = >50) μg/ml
Epstein-Barr Virus (EBV); human gammaherpesvirus 4, Table 3a, read-out: EBV EC50
  EC50: 1 µg/mL (≈ 4.44 µM)
Epstein-Barr Virus (EBV); human gammaherpesvirus 4, Table 4, read-out: EBV EC50
  EC50: 1.4 µg/mL (≈ 6.22 µM)
Epstein-Barr Virus (EBV); human gammaherpesvirus 4, Table 5, read-out: EBV EC50
  EC50: 1 µg/mL (≈ 4.44 µM)
Epstein-Barr Virus (EBV); human gammaherpesvirus 4, running text, read-out: anti EBV activity EC50
  EC50: 1 µg/mL (≈ 4.44 µM)
Epstein-Barr Virus (EBV); Table 3a, in parentheses, read-out: EBV EC90
  EC90: > 50 µg/mL
Epstein-Barr Virus (EBV); read-out: anti EBV activity EC90
  EC90: > 50 µg/mL

## C=Cc1cn(COC(CO)CO)c(=O)[nH]c1=O [Compound 9a, 1-[(2-Hydroxy-1-(hydroxymethyl)ethoxy)methyl]-5-vinyluracil]
[1]; Table 2
  CC50: > 100 µg/mL
[2]; [3]
  inhibition at 10 µg/mL: 82%
[2]; [4]
  EC50: 0.3 to 1 µg/mL

## [(−)-(6S)]-5-bromo-6-ethoxy-5,6-dihydro-3′-fluoro-2′,3′-dideoxyuridine [RB-4]
Human HBV
  EC50: 3 µM
[2]; Table 3a, read-out: % Inhibition of DHBV DNA in duck hepatocytes EC50
  EC50: > 10 µM

## [(+)(6R)]-5-bromo-6-ethoxy-5,6dihydro-3′-fluoro-2′,3′-dideoxyuridine [RB-5]
Human HBV
  EC50: 5 µM
[2]; Table 3a
  % Inhibition of DHBV DNA in duck hepatocytes EC50 μM: not active

## (5S,6S)5-Bromo-O^6-5′-cyclo-5,6-dihydro-5-ethyl-2′-deoxyuridine [Compound R-9]
HSV-1 (KOSSB) HSV-TK−
  HSV-1 (KOSSB) HSV-TK− EC50: 10 to 25 µg/mL
HSV-2 (MS); Table 4
  HSV-2 (MS) EC50: 10 µg/mL
HSV-1 (KOS) HSV-TK+
  HSV-1 (KOS) HSV-TK+ EC50: 1 to 5 µg/mL
HSV-1 (E-377); Table 4
  HSV-1 (E-377) EC50, μg/ml: 4.0 μg/ml

— patent US7589077B2, “Antiviral nucleosides” (priority 2001, dated 2009)
